Data on one compound can be found in patent publication US12453707B2, “Vaginal films” (priority 2017, dated 2025).

Each structure is given as a SMILES string.

For data set [1] the following is noted: cited from earlier work.
Data set [2] is described as follows: X-ray diffraction solid state solubility of TFV in polymers. It counts as physicochemical. Particulars: XRD of lyophilized polymer:TFV mass, pH 6-6.5. The protocol:
X-ray diffraction (XRD) was used to study the solid state solubility of TFV in a series of polymers like HPMC-E5, HEC, and NaCMC-LV. TFV and polymers were dissolved together in milliQ water on a magnetic stirrer to achieve various polymer to TFV (P:T) ratios. pH was adjusted to 6-6.5 using sodium hydroxide equimolar to TFV. The solutions were then lyophilized using a Freezone 6 lyophilizer (Labconco, MO, USA). The powder obtained after lyophilization was scanned on a Philips X-ray diffractometer between 5-50° 2θ. A 37-minute scan was obtained. Similarly obtained XRD scans for lyophilized pure polymers and lyophilized TFV (pH 6-6.5) served as controls.

For `C[C@H](Cn1cnc2c(N)ncnc21)OCP(=O)(O)O` [TFV, 9-[9(R)-2-(phosphonomethoxy)propyl]adenine], in data set [1], the “pKa, phosphate groups (first value)” value is 2.1; the “pKa, phosphate groups (second value)” value is reported as 4.3; the “pKa, primary amine group” value is 7.3. Further, the “P:T ratio at which HPMC-E5, HEC and NaCMC-LV were able to solubilize TFV” value in data set [2] is on record as at least 3.
